Values after ≈ are worked out from the molar mass of the structure shown. One block for each molecule: values may come before it. Starred links: 1 amine or outer side, 2 acyl side, 3 side chain; linkers in the order of their positions; H or OH if unused. Positions of bridges follow the written chain, without caps; N, C: chain ends. Non-standard residues stand in square brackets, D forms with d. Residues, ends and D or L forms follow the SMILES beside them. *: point of attachment. hTyr(3S-OH,4S-OH,3'-OSO3H) = N[C@H](C(=O)O)[C@H](O)[C@@H](O)c1ccc(O)c(OS(=O)(=O)O)c1; pTerphenylCO(4''-OnC5H11) = CCCCCOc1ccc(-c2ccc(-c3ccc(C(=O)*)cc3)cc2)cc1; Orn(4R-OH,5R-OH) = O=C([C@H](C[C@@H](O)[C@@H](O)N[*:3])N[*:1])[*:2]; hTyr(3S-OH,4S-OH) = N[C@H](C(=O)O)[C@H](O)[C@@H](O)c1ccc(O)cc1; Pro(3S-OH,4S-Me) = C[C@H]1CN[C@H](C(=O)O)[C@H]1O; X2 = CCCCCOc1ccc(-c2cc(-c3ccc(C(=O)*)cc3)no2)cc1; Gln(3R-OH) = NC(=O)C[C@@H](O)[C@H](N)C(=O)O; Hyp = O=C(O)[C@@H]1C[C@@H](O)CN1
Assays:
Pdss2/Mclk1 DKO cells [1] = experiment: Viability in glucose-free galactose-containing medium (resazurin reduction assay); assay type: cell-based, mouse
Method: Tissue culture and viability assays. […] Cell viability was determined by resazurin (Sigma Cat No R7017) reduction assay or crystal violet staining following standard procedures.
(§1) The resazurin cell viability assay. Briefly, resazurin was added directly to plates at 1/10 the volume of glucose culture medium. Viable cells with active metabolism can reduce resazurin into resorufin which causes a colour change from blue to pink. After a 2 hr incubation, plates were read on a plate reader (Tecan) to record absorbance at 570 nm and 600 nm. The cell viability was scored as a percentage relative to the signal from untreated glucose-grown wells. Consequently, each screened compound may be described by its effect (no, partial or full rescue) on survival of the KO cells in galactose medium.
The screen also uses cells lacking UQ biosynthesis (e.g., DKO cells) and its protocol is essentially the same as the galactose-only screen except that in step 2, a minimal amount of UQ10 is added into the galactose screening media at a concentration at which the added UQ10 is insufficient by itself to support survival.

wildtype MEFs = experiment: Cellular UQ10 levels (quinone quantification by HPLC); assay type: cell-based, mouse; conditions: for cellular uptake of exogenous UQ10: in combination with UQ10, vs UQ10 alone
Method: (§2) Quantification of quinones. Quinone content was detected and quantified by HPLC as previously described. […] After centrifugation for 5 min at 8,000×g, the hexane layer was collected and evaporated in a vacuum centrifuge. The quinone residue was then dissolved in ethanol and stored at −20° C. until HPLC analysis. The HPLC analysis was performed on a reverse phase C18 column (25.0×0.46 cm, 5 μm, Highchrom) using UV detection at 275 nm (Beckman System Gold). The mobile phase was methanol/ethanol (70:30 v/v) and isocratic elution was used at a flow rate of 1.8 ml/min.

[2] = Drop collapse assay (surfactant activity); assay type: physicochemical
Method: Drop collapse assay is a simple detection method of surface active agents. It relies on the capacity of surfactants to destabilize the liquid droplets on an oily surface. The drop-collapsing ability of McC1 along with other known potent surfactants was characterized. For each, 40 ul of compound solution in water was pipetted onto a hydrophobic Parafilm surface and the diameter of the drops was measured 1 min later using a ruler.

Pdss2/Mclk1 DKO cells [3] = experiment: Oxygen consumption rate (OCR) by Seahorse XF analyzer; assay type: cell-based, mouse; conditions: co-treatment with UQ10
Method: Measurement of oxygen consumption by Seaborse XF analyzer. Cells were seeded in XF v7 24-well plates (Seahorse Bioscience) at ˜40,000 cells/well for 24 hr. Prior to the measurements, cell medium was replaced with Seahorse XF base medium supplemented with 5.5 mM glucose (Sigma Cat No G8769), 2 mM Glutamax (Thermo Fisher Cat No 35050061) and 1 mM sodium pyruvate and allowed to equilibrate for 1 hour at 37° C. Oxygen consumption was measured first under baseline condition, followed by subsequent addition of 1 μg/ml oligomycin (Sigma Cat No 04876), 0.8 μM FCCP (Sigma Cat No C2920) and a combination of 1 μM rotenone (Sigma Cat No R8875) and 5 μM antimycin A (Sigma Cat No A8674) to assess the basal and maximal mitochondrial respiration rates. Four baseline measurements were recorded before the consecutive addition of the above-mentioned compounds, and three response measurements were taken after the addition of each compound. Results were finally normalized to protein content determined using the Bradford reagent (Bio-Rad). For experiments that involved culturing cells in the presence of lipoprotein-deficient serum (LPDS), cells were grown in culture medium supplemented with LPDS (Sigma S5394) for 1 week before OCR was measured using a Seahorse XF-24 extracellular flux analyzer as described above.

[4] = system: mitochondria of wild-type MEFs; experiment: UQ levels in mitochondrial extracts; assay type: cell-based, mouse
Text: FIGS. 7A to 7D present exemplary data showing that McC1 is capable of increasing the uptake of exogenous UQ into cells and mitochondria. (A) Bar chart showing change of UQ10 levels (as measured in ng/μg of protein) in Pdss2/Mclk1 DKO MEFs after treatment with UQ10, McC1 alone, or UQ10 and McC1 in combination. **p<0.01, ***p<0.001 (one-way ANOVA). (B) Bar charts presenting exemplary data showing changes of UQ levels in wildtype MEFs after treatment with UQ10, McC1 alone, or both in combination. Results are shown as cellular UQ10 levels (as provided in ng/μg of protein, left panel) or UQ9 levels (as provided in ng/μg of protein, right panel) in untreated cells, after treatment with 12.5 μM of McC1, after treatment with 2.5 μM of UQ10, or after co-treatment UQ10 and McC1. Results are mean±SEM (n=3). ****p<0.0001 (one-way ANOVA). (C) Bar chart presenting exemplary data showing changes of UQ10 and UQ9 levels in mitochondrial extracts from wildtype MEFs after treatment with UQ10 alone, or in combination with McC1. Results are shown as UQ9 and UQ10 levels in ng/μg of protein. Results are mean±SEM (n=3). ****p<0.0001 (student's t-test). (D) Bar chart presenting exemplary data showing changes of UQ10 level in mitochondrial extracts from Pdss2/Mclk1 DKO MEFs after treatment with UQ10 alone, or in combination with McC1. Results are shown as UQ10 levels (as provided in ng/μg of protein) in untreated DKO cells, after treatment with 2.5 μM of UQ10, or after co-treatment 2.5 μM of UQ10 and 12.5 μM of McC1. ND: Not Detectable. Results are mean±SEM (n=3). ****p<0.0001 (one-way ANOVA).
as §2

[5] = Method: Solubilization studies. In order to link the surfactant properties of McC1 and its stimulating impact on UQ10 uptake, the solubilization characteristics of McC1 on UQ10 have been determined. First, solubilization test was performed by overnight shaking of a mixture of UQ10 and McC1 in water.
Additional solubilization tests were performed using sonication. Excess amount of UQ10 was mixed with McC1 by sonication for 2 min in water.
Like caspofungin/McC1, surfactin is a cyclic lipopeptide. It is produced from various strains of Bacillus subtilis. Structurally it consists of a peptide chain formed by seven amino acids linked to a β-hydroxyl fatty acid via a lactone bond. It is known for its exceptional surfactant power. […] Then, solubilization test was performed by overnight shaking of a mixture of UQ10 and surfactin in water. The mixture were subjected to brief centrifugation to separate undissolved UQ10 before absorbance of the resultant clear supernatant at 275 nm was measured spectrophotometrically.
Several other surfactants were tested for their ability to solubilize UQ. Briefly, excess amount of UQ10 was mixed with water solution of the tested surfactants using sonication. The resultant suspensions were then filtered through a 0.45 μm syringe filter to remove undissolved UQ10.

Pdss2/Mclk1 DKO MEFs = experiment: Cellular UQ10 levels (quinone quantification by HPLC); assay type: cell-based, mouse; conditions: in combination with UQ10, vs UQ10 alone
Method: as §2

[6] = cited from earlier work
Mclk1 KO cells = experiment: Viability in glucose-free galactose-containing medium (resazurin reduction assay); assay type: cell-based, mouse; conditions: sufficiently high dose (FIG. 3A)
Method: Tissue culture and viability assays. […] To score growth and viability in galactose, cells were first grown in high glucose DMEM medium to confluency and then switched to glucose-free DMEM media (Thermo Fisher Cat No 26400036) supplemented with 10 mM galactose (Sigma Cat No G5388), 1 mM sodium pyruvate (Thermo Fisher Cat No 11360070), 10% dialyzed FBS (Thermo Fisher Cat No 26400036) and 1% antibiotic-antimycotic solution. Cell viability was determined by resazurin (Sigma Cat No R7017) reduction assay or crystal violet staining following standard procedures.
The screen uses cells lacking UQ (e.g., Mclk1 KO cells) and consists of three key steps: • 1) Day 0: preparation of Mclk1 KO cells in 96-well plates in standard (glucose-containing) culture medium. • 2) Day 1: changing to glucose-free galactose-containing medium and adding compounds to be screened at a concentration of approximately 10 μM. • 3) Day 4 to 6: following 3 to 5 days of incubation with the compound to be screened, media were removed and cell viability was assayed by resazurin reduction assay.
as §1

Molecule: COC1=C(OC)C(=O)C(C/C=C(\C)CC/C=C(\C)CC/C=C(\C)CC/C=C(\C)CC/C=C(\C)CC/C=C(\C)CC/C=C(\C)CC/C=C(\C)CCC=C(C)C)=C(C)C1=O [UQ9, ubiquinone-9]
rescue from galactose-induced cell death by UQ supplementation (Pdss2/Mclk1 DKO cells [1]; if provided at a sufficient amount): sufficient to rescue them from galactose-induced cell death

Molecule: CCCCCOc1ccc(-c2ccc(-c3ccc(C(=O)N[C@H]4C[C@@H](O)[C@@H](O)NC(=O)[C@@H]5[C@@H](O)[C@@H](C)CN5C(=O)[C@H]([C@@H](C)O)NC(=O)[C@H]([C@H](O)[C@@H](O)c5ccc(O)cc5)NC(=O)[C@@H]5C[C@@H](O)CN5C(=O)[C@H]([C@@H](C)O)NC4=O)cc3)cc2)cc1 [AFG, Anidulafungin] ({pTerphenylCO(4''-OnC5H11)}-[Orn(4R-OH,5R-OH)]T[Hyp][hTyr(3S-OH,4S-OH)]T[Pro(3S-OH,4S-Me)]; lactam 1-C)
cellular uptake of exogenous UQ10 (wildtype MEFs): did not further increase the level of UQ10
surfactant (drop collapse) activity [2]: no drop collapse activity

solubilization power for UQ compared to McC1 [5]: lower solubilization power than McC1
water solubility of UQ10 in the presence of the compound [5]: increased
surfactant (drop collapse) activity [2]: potent surfactant activity
Molecule: CC(C)CCCCCCCCC[C@@H]1CC(=O)N[C@@H](CCC(=O)O)C(=O)N[C@@H](CC(C)C)C(=O)N[C@H](CC(C)C)C(=O)N[C@@H](C(C)C)C(=O)N[C@@H](CC(=O)O)C(=O)N[C@H](CC(C)C)C(=O)N[C@@H](CC(C)C)C(=O)O1 [surfactin] (HELM PEPTIDE1{E.L.[dL].V.D.[dL].L}|CHEM1{[CC(C)CCCCCCCCC[C@H](CC(=O)[*:1])O[*:2]]}$PEPTIDE1,CHEM1,1:R1-1:R1|PEPTIDE1,CHEM1,7:R2-1:R2$$$V2.0)
mitochondrial respiration (OCR) compared with UQ10 treatment alone (Pdss2/Mclk1 DKO cells [3]): Higher respiration rates
UQ uptake into mitochondria compared to McC1 ([4]; FIG. 17C right panel): less stimulating action on UQ uptake into mitochondria
uptake of exogenous UQ10 into mitochondria ([4]; in combination with UQ10, vs UQ10 alone): augmented uptake of UQ into mitochondria
cellular uptake of exogenous UQ10 (Pdss2/Mclk1 DKO MEFs): improves UQ10 uptake into cells
viability rescue of DKO cells (Pdss2/Mclk1 DKO cells [1]; 10 μM surfactin with a small amount of UQ10 (FIG. 17D)): full viability rescue
survival of DKO cells in galactose medium (Pdss2/Mclk1 DKO cells [1]; compound by itself, no UQ10 added): no effect

Molecule: COc1ccc2[nH]c([S+]([O-])Cc3ncc(C)c(OC)c3C)nc2c1 (centres unmarked) [omeprazole]
solubility in water [6]: 0.359 mg/mL (≈ 1040 µM)

Molecule: CCCCCCCC/C=C\CCCCCCCC(=O)ON1C(=O)CC(S(=O)(=O)O)C1=O (centres unmarked) [SSO, sulfo-N-succinimidyl oleate]
effect on cellular uptake of UQ10 (wildtype MEFs; cells treated with UQ10 or UQ10 combined with McC1 (FIG. 8)): inhibits cellular uptake of UQ10

Molecule: CO[C@H]1C[C@@H]2CC[C@@H](C)[C@@](O)(O2)C(=O)C(=O)N2CCCC[C@H]2C(=O)O[C@H]([C@H](C)C[C@@H]2CC[C@@H](OC(=O)C(C)(CO)CO)[C@H](OC)C2)CC(=O)[C@H](C)/C=C(\C)[C@@H](O)[C@@H](OC)C(=O)[C@H](C)C[C@H](C)/C=C/C=C/C=C/1C [temsirolimus]
solubility in water [6]: 0.02 mg/mL (≈ 19.4 µM)

Molecule: CCCCCOc1ccc(-c2cc(-c3ccc(C(=O)N[C@H]4C[C@@H](O)[C@@H](O)NC(=O)[C@@H]5[C@@H](O)[C@@H](C)CN5C(=O)[C@H]([C@H](O)CC(N)=O)NC(=O)[C@H]([C@H](O)[C@@H](O)c5ccc(O)c(OS(=O)(=O)O)c5)NC(=O)[C@@H]5C[C@@H](O)CN5C(=O)[C@H]([C@@H](C)O)NC4=O)cc3)no2)cc1 [MFG, Micafungin] (X2-[Orn(4R-OH,5R-OH)]T[Hyp][hTyr(3S-OH,4S-OH,3'-OSO3H)][Gln(3R-OH)][Pro(3S-OH,4S-Me)]; lactam 1-C)
cellular uptake of exogenous UQ10 (wildtype MEFs): did not further increase the level of UQ10
surfactant (drop collapse) activity [2]: no drop collapse activity

solubilization of UQ10 in water by the compound [5]: improve the water solubility of UQ10
Molecule: Saponins

Molecule: O=c1cc(-c2ccc(O)c(O)c2)oc2cc(O)cc(O)c12 [luteolin]
solubility in water [6]: 0.00572 mg/mL (≈ 20 µM)

Molecule: lipopeptide detergent-12 [LPD-12]
solubilization of UQ10 in water by the compound [5]: increases the water solubilization of UQ10

Molecule: C=CCNC1=C2C[C@@H](C)C[C@H](OC)[C@H](O)[C@@H](C)/C=C(\C)[C@H](OC(N)=O)[C@@H](OC)/C=C\C=C(/C)C(=O)NC(=CC1=O)C2=O [17-AAG]
solubility in water [6]: 0.1 mg/mL (≈ 171 µM)

Molecule: O=C(O)c1ccc(O)cc1O [2,4-DHB, 2,4-dihydroxybenzoic acid]
survival of Mclk1 KO cells in galactose-containing media (Mclk1 KO cells): allows them to survive in galactose-containing media

Molecule: CC(C)(C)NC(=O)[C@H]1CC[C@H]2[C@@H]3CC[C@H]4NC(=O)C=C[C@]4(C)[C@H]3CC[C@]12C [finasteride]
solubility in water [6]: 0.0117 mg/mL (≈ 31.4 µM)
